The text below walks through data of PubChem BioAssay AID1259332 (Broad Institute, 2017).

Activity calls are given as the source filed them. The rule behind the calls is not given here.

The first assay is described as follows: CD40 pathway inhibition in B cells – B cell lineage, dose response (AID 1259332).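 Note: cells stimulated with CD40 ligand tCD40L; 0% = neutral control wells and -100% = positive control wells.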 As to conditions: B cell line, CD40 signaling inhibition reporter; at 3.5 µM (top of the series).
For the compound `CCc1cnc(N2[C@H](C#N)[C@@H](c3ccc(C#CC(C)C)cc3)[C@H]2CO)s1`, the activity change, negative = inhibition was 8.53% (inactive).

For the compound `O=S(=O)(c1cccc2cnccc12)N1CCNCC1`, the activity change, negative = inhibition is -9.07% (inactive).

With `O=C1C=CC(=O)C2=C1C1c3ccccc3C2c2ccccc21`, the activity change, negative = inhibition was -3.76% (inactive).

Take `Cc1noc(C)c1S(=O)(=O)Nc1ccc2c(c1)C(=O)N([C@H](C)CO)C[C@H](C)[C@@H](CN(C)C(=O)Nc1cccc3ccccc13)OCCCC[C@H](C)O2`: the activity change, negative = inhibition was -1% (inactive).

Turning to `Cc1ccc(-c2cc(C(=O)N3CC(C)OC(C)C3)c3ccccc3n2)o1` (stereo not given), the activity change, negative = inhibition was 26% (inactive).

Turning to `C[C@H]1CN([C@@H](C)CO)C(=O)c2c(c3ccccc3n2C)-c2ccccc2CO[C@H]1CN(C)S(=O)(=O)c1ccc([N+](=O)[O-])cc1`, the activity change, negative = inhibition is -3.2% (inactive).

Staying with this assay, now noted: B cell line, CD40 signaling inhibition reporter; at 10 µM (top of the series).
Turning to `C[C@@H]1CN([C@@H](C)CO)C(=O)c2c(c3ccccc3n2C)-c2ccccc2CO[C@H]1CN(C)S(=O)(=O)c1ccc([N+](=O)[O-])cc1`, the activity change, negative = inhibition is -6.57% (inactive).

As for `Oc1cc(O)cc(/C=C/c2ccc(O)c(O)c2)c1`, the activity change, negative = inhibition was -10.7% (inactive).

On to `C(=Cc1c[nH]c2ccccc12)c1nccc2ccccc12`, for which the activity change, negative = inhibition is 74.5% (inactive).

In the case of `O=C1C(Br)=C(c2ccccc2)C(c2ccccc2)=C1c1ccccc1`, the activity change, negative = inhibition is -7.86% (inactive).

On to `Cc1c(C(=O)c2cccc3ccccc23)c2cccc3c2n1[C@H](CN1CCOCC1)CO3`, for which the activity change, negative = inhibition was -18.3% (inactive).

Turning to `COCCn1c(C)cc(C(=O)COC(=O)c2ccc(Br)o2)c1C`, the activity change, negative = inhibition was -11.7% (inactive).

Turning to `O=C(c1ccc(-c2ccc([N+](=O)[O-])cc2)o1)N1CCCC(C(F)(F)F)C1` (stereo not given), the activity change, negative = inhibition was 7.32% (inactive).

As to `CCCCC1C(=O)NC(=S)N(C)C1=O` (stereo not given), the activity change, negative = inhibition was 11.5% (inactive).

For the compound `CCCCn1c(NC(=O)c2ccc(Br)o2)c(S(=O)(=O)c2ccccc2)c2nc3ccccc3nc21`, the activity change, negative = inhibition was 6.39% (inactive).
